Results: article PMC11369160, “An outer membrane porin-lipoprotein complex modulates elongasome movement to establish cell curvature in Rhodospirillum rubrum” (Nature Communications, 2024)

Tests used:
Test in all cases: microscale thermophoresis
[1] = biological target: T1, OmpA-like peptidoglycan-binding domain of R. rubrum PapS (Rhodospirillum rubrum, UniProt Q2RP23)
T1 construct: gene Rru_A3328; isolated C-terminal OmpA-like domain, residues 156-273; His6-SUMO tag cut by Ulp1; E. coli Rosetta(DE3)pLysS; RED-NHS labelled
Text: microscale thermophoresis on OmpA-like peptidoglycan-binding domain of R. rubrum PapS | isolated OmpA-like domain of PapS bound mDAP in vitro, albeit with lower affinity

[2] = biological target: T2, A. baumannii OmpA (OmpA-like peptidoglycan-binding domain) (Acinetobacter baumannii, UniProt Q6RYW5)
T2 construct: gene omp38; isolated periplasmic OmpA-like domain, residues 221-339; His6-SUMO tag cut by Ulp1; E. coli Rosetta(DE3)pLysS; RED-NHS labelled

[3] = biological target: T3, OmpA-like peptidoglycan-binding domain of R. rubrum PapS (Rhodospirillum rubrum, UniProt Q2RP23, R223A); details: MST buffer 25 mM HEPES/NaOH pH 8, 50 mM NaCl, 0.1% Tween; 25 °C; 100 nM RED-NHS labelled protein; mDAP 1.5 µM to 50 mM
T3 construct: gene Rru_A3328; isolated C-terminal OmpA-like domain, residues 156-273; His6-SUMO tag cut by Ulp1; E. coli Rosetta(DE3)pLysS; RED-NHS labelled
T3 sequence (Q2RP23 entry or part of it R223A): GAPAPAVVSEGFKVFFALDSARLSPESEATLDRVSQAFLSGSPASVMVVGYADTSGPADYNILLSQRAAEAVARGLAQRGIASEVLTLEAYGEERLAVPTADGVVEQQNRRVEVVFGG

T1 sequence (Q2RP23 entry or part of it): as the sequence (Q2RP23 entry or part of it R223A) above, with A68R counted along it
T2 sequence (Q6RYW5 221-339): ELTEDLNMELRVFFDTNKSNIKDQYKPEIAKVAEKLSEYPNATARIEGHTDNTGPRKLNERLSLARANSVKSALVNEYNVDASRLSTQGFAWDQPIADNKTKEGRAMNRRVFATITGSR

## N[C@H](CCC[C@H](N)C(=O)O)C(=O)O [mDAP]
[1]
  Kd: 2.5 mM
[2]
  Kd: 0.009 mM
[3]
  mDAP binding: In vitro analysis verified that the mutant domain no longer showed mDAP-binding activity
